Here are results for 2 molecules from paper PMC10077475, “DG9-conjugated morpholino rescues phenotype in SMA mice by reaching the CNS via a subcutaneous administration” (JCI Insight, 2023).

Data set [1] has as its system severe SMA mouse model (Taiwanese model). Nature of the data set: Survival of severe SMA mice after a single subcutaneous injection at PD0. Type of data set: in vivo. The conditions noted are these: until humane endpoint. How it is done: To examine whether DG9 peptide can increase the efficacy of PMO, we conjugated it to an 18-mer PMO with a sequence identical to nusinersen. The DG9-PMO, unconjugated PMO, and MOE were injected into SMA model mice [Cg-Tg(SMN2)2HungSmn1^tm1Hung/J; abbreviated as Smn^–/– SMN2^Tg/Tg; commonly called the Taiwanese model]. We also used an arginine-rich peptide (R6G) that is currently being explored in clinical trials for Duchenne muscular dystrophy (DMD) and used in preclinical studies for Hutchinson-Gilford progeria syndrome ([37], [38]). The benchmark control peptide R6G was conjugated to the same PMO sequence used in our study (R6G-PMO). […] We subcutaneously injected mice with the AOs or saline (nontreated, NT) administered at postnatal day 0 (PD0) at 2 doses: 40 mg/kg or 80 mg/kg. In our preliminary experiments, we also tested lower doses of 10 and 20 mg/kg (data not shown). […] The survival was recorded until a humane endpoint was reached. For the 40 mg/kg doses, the median survival was 12 days for unconjugated PMO, 15.5 days for MOE, and 17 days for R6G-PMO, which was increased to 58 days for DG9-PMO treatment (Figure 1A and Supplemental Figure 1A; supplemental material available online with this article; https://doi.org/10.1172/jci.insight.160516DS1). The median survival increased to 57 days for unconjugated PMO, 64 days for MOE, and 121 days for DG9-PMO at the higher dose of 80 mg/kg (Figure 1A). […] In spite of no statistical difference between DG9-PMO and MOE groups, the median survival of DG9-PMO still was higher than MOE, as only 1 mouse was alive until PD200 following a 40 mg/kg injection of MOE.
SMA-transgenic mice [JAX stock 005058 FVB.Cg-Tg(SMN2)2HungSmn1^tm1Hung/J] (Smn^–/–; SMN2^Tg/Tg), also known as Taiwanese mice, were purchased from Jackson Laboratory. Heterozygous mice for Smn1 (Smn1^+/–; SMN2^–/–) generated by us were crossed with mice homozygous for Smn1 Smn^–/–; SMN2^Tg/Tg generated by us to obtain the SMA mice (Smn^–/–; SMN2^Tg/–) or the heterozygous healthy control (Smn1^+/–; SMN2^Tg/–). The SMA mice display a severe overt phenotype similar to patients with SMA type I. The mice were genotyped using a PCR assay on genomic DNA isolated from tail biopsies using the Phire Tissue Direct PCR Kit (Thermo Fisher Scientific) as per the manufacturer’s instructions. The DNA was amplified using the primers described in Supplemental Table 1 using the condition Mouse Smn: 98°C/5 minutes → 98°C/5 s 58°C/10 s 72°C/10 s × 35 cycles → 72°C/1 minute.
Injections were carried out using a 30-gauge Hamilton syringe. SMA mice identified following genotyping were randomly assigned to a treatment group. The researcher injecting mice was blinded to the treatment. SMA neonates were subcutaneously injected with 40 or 80 mg/kg of AOs at PD0, while NT and heterozygous control mice were injected with saline (n = 10–49) per group. Tissues including the quadriceps muscle, liver, kidney, spleen, diaphragm, intercostal muscle, heart, brain, and spinal cord were collected and snap-frozen in dry ice– cooled isopentane, then subsequently stored at –80°C.

Data set [2] has as its system neuromuscular junctions of SMA mice. Nature of the data set: NMJ staining, innervation of quadriceps and intercostal muscles. Format: in vivo, mouse. As to conditions: 40 mg/kg s.c. at PD0, quadriceps and intercostal muscles at PD30, 300–500 NMJs per group. From the text:
We assessed the NMJ architecture of the quadriceps and the intercostal muscles at PD30 to understand the phenotypic rescue following injections at PD0 (Figure 5A). […] Although there was no statistical significance, we observed upregulation of both atrogenes in the unconjugated PMO–treated mice and upregulation of only Atrogin-1 in MOE-treated mice in the quadriceps muscle at approximately PD30. […] We also evaluated the expressions of muscle specific kinase (MuSK) and acetylcholine receptor alpha (AChRα), which play a crucial role in NMJ formation and maintenance ([46]–[50]). […] The findings corroborate our hypothesis that DG9-PMO treatment rescues the crosstalk between the muscle and the neurons by improving muscle pathology and the characteristics of NMJs.
NMJ staining was carried out as previously described ([71]). Briefly, the quadriceps and the intercostal muscle were fixed in 4 % paraformaldehyde (PFA) for 2 hours. The muscles were washed quickly with PBS and blocked with 5% goat serum and 2 % Triton-X in PBS for 1 hour at RT. This was followed by overnight incubation at 4°C with the primary mouse monoclonal antibodies anti-neurofilament clone 2H3 (1:100) and […] (1:500) (DSHB). […] The synaptic area was quantified using ImageJ. […]

Data set [3] in a line: Toxicology: serum markers, urinary KIM-1, liver and kidney histology. Format: in vivo, mouse. As for the experimental part:
To further elucidate the possibility of long-term toxicity, we collected serum from the Hets and AO-treated mice at PD30–PD35. A toxicological evaluation was performed on the levels of alkaline phosphatase (ALP), alanine transaminase (ALT), aspartate aminotransferase (AST), creatine kinase (CK), creatinine, total bilirubin, total protein, albumin, globulin, and gamma-glutamyl transferase (GGT). […] We also performed a qualitative histological analysis of the liver and kidney and found no signs of observable toxicity (Supplemental Figure 9D). We also analyzed levels of urinary kidney injury marker-1 (KIM-1) following DG9-PMO treatment at both 40 and 80 mg/kg.
Blood was collected from the mice around PD30–PD40 (n = 4–10 per group) during the dissection procedure. The blood was left at RT for 30 minutes and centrifuged at 2,000 rcf. The resulting supernatant (serum) was transferred to a new 1.5 mL tube and stored at –20 °C. The serum samples were analyzed by IDEXX BioAnalytics. The evaluation was performed on a standard set of toxicity markers: glucose, total bilirubin, blood urea nitrogen, CK, creatinine, ALP, ALT, AST, GGT, globulin, albumin, and total protein. Urinary KIM-1 analysis was performed from urine collected from mice at PD30. The collected urine was centrifuged at 2,000 rcf at 4°C. […]

[4] abbreviates: single subcutaneous injection at PD0, 40 mg/kg.
The mark [5] stands for this setting: single subcutaneous injection at PD0, 80 mg/kg.

“unconjugated PMO: PMO targeting ISS-N1 intron 7 (5′ TCACTTTCATAATGCTGG 3′), purchased from Gene Tools LLC (all phosphorodiamidate morpholino (PMO)) [reference compound]”: the results for the median survival in data set [1] (setting [4]) and in data set [1] (setting [5]) were 12 days and 57 days, respectively. Besides, in data set [2], the “full innervation of peripheral synapses (NMJs)” value was 40%–50%.

Regarding `CC(=O)N[C@@H](Cc1ccc(O)cc1)C(=O)N[C@@H](C)C(=O)N[C@H](CCCNC(=N)N)C(=O)N[C@H](C(=O)N[C@@H](CCCNC(=N)N)C(=O)N[C@@H](CCCNC(=N)N)C(=O)N[C@H](CCCNC(=N)N)C(=O)NCC(=O)N1CCC[C@H]1C(=O)N[C@@H](CCCNC(=N)N)C(=O)NCC(=O)N[C@@H](Cc1ccc(O)cc1)C(=O)N[C@@H](C)C(=O)N[C@H](CCCNC(=N)N)C(=O)N[C@H](C(=O)N[C@@H](CCCNC(=N)N)C(=O)N[C@@H](CCCNC(=N)N)C(=O)N[C@H](CCCNC(=N)N)C(=O)NCC(=O)N1CCC[C@H]1C(=O)N[C@@H](CCCNC(=N)N)C(=O)N[C@H](CCCNC(=N)N)C(=O)N1C[C@@H](COP(=O)(N(C)C)N2C[C@@H](COP(=O)(N(C)C)N3C[C@@H](COP(=O)(N(C)C)N4C[C@@H](COP(=O)(N(C)C)N5C[C@@H](COP(=O)(N(C)C)N6C[C@@H](COP(=O)(N(C)C)N7C[C@@H](COP(=O)(N(C)C)N8C[C@@H](COP(=O)(N(C)C)N9C[C@@H](COP(=O)(N(C)C)N%10C[C@@H](COP(=O)(N(C)C)N%11C[C@@H](COP(=O)(N(C)C)N%12C[C@@H](COP(=O)(N(C)C)N%13C[C@@H](COP(=O)(N(C)C)N%14C[C@@H](COP(=O)(N(C)C)N%15C[C@@H](COP(=O)(N(C)C)N%16C[C@@H](COP(=O)(N(C)C)N%17C[C@@H](COP(=O)(N(C)C)N%18C[C@@H](COP(=O)(N(C)C)N%19CCC(C(N)=O)CC%19)O[C@@H](n%19cc(C)c(=O)[nH]c%19=O)C%18)O[C@@H](n%18ccc(N)nc%18=O)C%17)O[C@@H](n%17cnc%18c(N)ncnc%18%17)C%16)O[C@@H](n%16ccc(N)nc%16=O)C%15)O[C@@H](n%15cc(C)c(=O)[nH]c%15=O)C%14)O[C@@H](n%14cc(C)c(=O)[nH]c%14=O)C%13)O[C@@H](n%13cc(C)c(=O)[nH]c%13=O)C%12)O[C@@H](n%12ccc(N)nc%12=O)C%11)O[C@@H](n%11cnc%12c(N)ncnc%12%11)C%10)O[C@@H](n%10cc(C)c(=O)[nH]c%10=O)C9)O[C@@H](n9cnc%10c(N)ncnc%109)C8)O[C@@H](n8cnc9c(N)ncnc98)C7)O[C@@H](n7cc(C)c(=O)[nH]c7=O)C6)O[C@@H](n6cnc7c(=O)[nH]c(N)nc76)C5)O[C@@H](n5ccc(N)nc5=O)C4)O[C@@H](n4cc(C)c(=O)[nH]c4=O)C3)O[C@@H](n3cnc4c(=O)[nH]c(N)nc43)C2)O[C@@H](n2cnc3c(=O)[nH]c(N)nc32)C1)C(C)C)C(C)C` (some centres unmarked) [DG9-PMO], the results for the median survival in data set [1] (setting [4]) and in data set [1] (setting [5]) were 58 days and 121 days, respectively. In addition, the “full innervation of peripheral synapses (NMJs)” value in data set [2] is given as “more than 60%”. Also, the “urinary kidney injury marker-1 (KIM-1) compared to the Hets” value in data set [3] (40 and 80 mg/kg, urine at PD30, sandwich ELISA) is “no apparent increase”. The “toxicity on the liver and kidney” value in data set [3] (as high as 80 mg/kg dose) was “no apparent toxicity”.
